# Legend:
# Staphylococcus aureus [1] = experiment: Antibacterial activity against Staphylococcus aureus ATCC 6538 after 48 hrs by broth microdilution method; assay type: functional; conditions: ATCC 6538, 48 h
# Klebsiella pneumoniae [2] = experiment: Antibacterial activity against extended spectrum beta-lactamase producing Klebsiella pneumoniae HK14368/08 after 48 hrs by broth microdilution method; assay type: functional; conditions: HK14368/08, 48 h
# Enterococcus sp. [3] = experiment: Antibacterial activity against Enterococcus sp. HK14365/08 after 48 hrs by broth microdilution method; assay type: functional; conditions: HK14365/08, 48 h
# Aspergillus fumigatus [4] = experiment: Antifungal activity against Aspergillus fumigatus 231 after 48 hrs by broth microdilution method; assay type: functional; conditions: Aspergillus fumigatus, 231, 48 h
# Pichia kudriavzevii [5] = experiment: Antifungal activity against Candida krusei E28 after 48 hrs by broth microdilution method; assay type: functional; conditions: E28, 48 h
# [6] = Selectivity index, ratio of IC50 for human HepG2 cells to MIC for Mycobacterium tuberculosis; assay type: toxicity; conditions: read-out: Selectivity Index
# Huh-7 = experiment: Cytotoxicity against human HuH7 cells assessed as cell viability after 48 hrs by MTS assay; assay type: cell-based; conditions: Huh-7, 48 h
# Mycobacterium kansasii [7] = experiment: Antimycobacterial activity against Mycobacterium kansasii 6509/96 clinical isolate after 7 days by micromethod; assay type: functional; conditions: 6509/96, 168 h
# A-431 = experiment: Cytotoxicity against human A431 cells assessed as cell viability after 48 hrs by MTS assay; assay type: cell-based; conditions: A-431, 48 h
# [8] = Cytotoxicity against human A431 cells assessed as cell viability at 30 uM after 48 hrs by MTS assay relative to control; assay type: cell-based, A-431; conditions: read-out: Activity
# Candida albicans [9] = experiment: Antifungal activity against Candida albicans ATCC 44859 after 24 hrs by broth microdilution method; assay type: functional; conditions: ATCC 44859, 24 h
# Escherichia coli [10] = experiment: Antibacterial activity against Escherichia coli ATCC 8739 after 24 hrs by broth microdilution method; assay type: functional; conditions: ATCC 8739, 24 h
# Pichia kudriavzevii [11] = experiment: Antifungal activity against Candida krusei E28 after 24 hrs by broth microdilution method; assay type: functional; conditions: E28, 24 h
# Staphylococcus aureus [12] = experiment: Antibacterial activity against methicillin-resistant Staphylococcus aureus HK5996/08 after 24 hrs by broth microdilution method; assay type: functional; conditions: HK5996/08, 24 h
# Escherichia coli [13] = experiment: Antibacterial activity against Escherichia coli ATCC 8739 after 48 hrs by broth microdilution method; assay type: functional; conditions: ATCC 8739, 48 h
# HepG2 = experiment: Cytotoxicity against human HepG2 cells assessed as cell viability after 48 hrs by MTS assay; assay type: cell-based; conditions: HepG2, 48 h
# [14] = system: Staphylococcus epidermidis; experiment: Antibacterial activity against Staphylococcus epidermidis HK6996/08 after 48 hrs by broth microdilution method; assay type: functional; conditions: HK6996/08, 48 h
# [15] = Cytotoxicity against MDCK cells assessed as cell viability at 30 uM after 48 hrs by MTS assay relative to control; assay type: cell-based, Canis lupus familiaris; conditions: dog, read-out: Activity
# Candida albicans [16] = experiment: Antifungal activity against Candida albicans ATCC 44859 after 48 hrs by broth microdilution method; assay type: functional; conditions: ATCC 44859, 48 h
# Trichosporon asahii [17] = experiment: Antifungal activity against Trichosporon asahii 1188 after 48 hrs by broth microdilution method; assay type: functional; conditions: Trichosporon asahii, 1188, 48 h
# Mycobacterium kansasii [18] = experiment: Antimycobacterial activity against Mycobacterium kansasii 6509/96 clinical isolate after 14 days by micromethod; assay type: functional; conditions: 6509/96, 336 h
# Lichtheimia corymbifera [19] = experiment: Antifungal activity against Absidia corymbifera 272 after 48 hrs by broth microdilution method; assay type: functional; conditions: Lichtheimia corymbifera, 272, 48 h
# Trichosporon asahii [20] = experiment: Antifungal activity against Trichosporon asahii 1188 after 24 hrs by broth microdilution method; assay type: functional; conditions: Trichosporon asahii, 1188, 24 h
# Mycobacterium kansasii [21] = experiment: Antimycobacterial activity against Mycobacterium kansasii CNCTC My 235/80 after 7 days by micromethod; assay type: functional; conditions: CNCTC My 235/80, 168 h
# Klebsiella pneumoniae [22] = experiment: Antibacterial activity against Klebsiella pneumoniae HK11750/08 after 48 hrs by broth microdilution method; assay type: functional; conditions: HK11750/08, 48 h
# Mycobacterium avium [23] = experiment: Antimycobacterial activity against Mycobacterium avium CNCTC My 330/88 after 21 days by micromethod; assay type: functional; conditions: CNCTC My 330/88, 504 h
# Mycobacterium kansasii [24] = experiment: Antimycobacterial activity against Mycobacterium kansasii 6509/96 clinical isolate after 21 days by micromethod; assay type: functional; conditions: 6509/96, 504 h
# Pseudomonas aeruginosa [25] = experiment: Antibacterial activity against Pseudomonas aeruginosa ATCC 9027 after 24 hrs by broth microdilution method; assay type: functional; conditions: ATCC 9027, 24 h
# [26] = system: Trichophyton mentagrophytes; experiment: Antifungal activity against Trichophyton mentagrophytes 445 after 120 hrs by broth microdilution method; assay type: functional; conditions: Trichophyton mentagrophytes, 445, 120 h
# Nakaseomyces glabratus [27] = experiment: Antifungal activity against Candida glabrata 20/I after 48 hrs by broth microdilution method; assay type: functional
# Klebsiella pneumoniae [28] = experiment: Antibacterial activity against Klebsiella pneumoniae HK11750/08 after 24 hrs by broth microdilution method; assay type: functional; conditions: HK11750/08, 24 h
# [29] = system: Mycobacterium tuberculosis; experiment: Antimycobacterial activity against Mycobacterium tuberculosis CNCTC My 331/88 after 21 days by micromethod; assay type: functional; conditions: CNCTC My 331/88, 504 h
# Mycobacterium kansasii [30] = experiment: Antimycobacterial activity against Mycobacterium kansasii CNCTC My 235/80 after 14 days by micromethod; assay type: functional; conditions: CNCTC My 235/80, 336 h
# Staphylococcus aureus [31] = experiment: Antibacterial activity against methicillin-resistant Staphylococcus aureus HK5996/08 after 48 hrs by broth microdilution method; assay type: functional; conditions: HK5996/08, 48 h
# Candida tropicalis [32] = experiment: Antifungal activity against Candida tropicalis 156 after 24 hrs by broth microdilution method; assay type: functional; conditions: Candida tropicalis, 156, 24 h
# [33] = Cytotoxicity against human HuH7 cells assessed as cell viability at 30 uM after 48 hrs by MTS assay relative to control; assay type: cell-based, Huh-7; conditions: read-out: Activity
# Lichtheimia corymbifera [34] = experiment: Antifungal activity against Absidia corymbifera 272 after 24 hrs by broth microdilution method; assay type: functional; conditions: Lichtheimia corymbifera, 272, 24 h
# [35] = system: Trichophyton mentagrophytes; experiment: Antifungal activity against Trichophyton mentagrophytes 445 after 72 hrs by broth microdilution method; assay type: functional; conditions: Trichophyton mentagrophytes, 445, 72 h
# Mycobacterium avium [36] = experiment: Antimycobacterial activity against Mycobacterium avium CNCTC My 330/88 after 14 days by micromethod; assay type: functional; conditions: CNCTC My 330/88, 336 h
# Pseudomonas aeruginosa [37] = experiment: Antibacterial activity against Pseudomonas aeruginosa ATCC 9027 after 48 hrs by broth microdilution method; assay type: functional; conditions: ATCC 9027, 48 h
# [38] = system: Staphylococcus epidermidis; experiment: Antibacterial activity against Staphylococcus epidermidis HK6996/08 after 24 hrs by broth microdilution method; assay type: functional; conditions: HK6996/08, 24 h
# Klebsiella pneumoniae [39] = experiment: Antibacterial activity against extended spectrum beta-lactamase producing Klebsiella pneumoniae HK14368/08 after 24 hrs by broth microdilution method; assay type: functional; conditions: HK14368/08, 24 h
# Aspergillus fumigatus [40] = experiment: Antifungal activity against Aspergillus fumigatus 231 after 24 hrs by broth microdilution method; assay type: functional; conditions: Aspergillus fumigatus, 231, 24 h
# Mycobacterium kansasii [41] = experiment: Antimycobacterial activity against Mycobacterium kansasii CNCTC My 235/80 after 21 days by micromethod; assay type: functional; conditions: CNCTC My 235/80, 504 h
# Nakaseomyces glabratus [42] = experiment: Antifungal activity against Candida glabrata 20/I after 24 hrs by broth microdilution method; assay type: functional
# Candida tropicalis [43] = experiment: Antifungal activity against Candida tropicalis 156 after 48 hrs by broth microdilution method; assay type: functional; conditions: Candida tropicalis, 156, 48 h
# [44] = system: Mycobacterium tuberculosis; experiment: Antimycobacterial activity against Mycobacterium tuberculosis CNCTC My 331/88 after 14 days by micromethod; assay type: functional; conditions: CNCTC My 331/88, 336 h
# [45] = Cytotoxicity against human HepG2 cells assessed as cell viability at 30 uM after 48 hrs by MTS assay relative to control; assay type: cell-based; conditions: read-out: Activity
# Staphylococcus aureus [46] = experiment: Antibacterial activity against Staphylococcus aureus ATCC 6538 after 24 hrs by broth microdilution method; assay type: functional; conditions: ATCC 6538, 24 h
# MDCK = experiment: Cytotoxicity against MDCK cells assessed as cell viability after 48 hrs by MTS assay; assay type: cell-based; conditions: Canis lupus familiaris
# Enterococcus sp. [47] = experiment: Antibacterial activity against Enterococcus sp. HK14365/08 after 24 hrs by broth microdilution method; assay type: functional; conditions: HK14365/08, 24 h
structure (smiles),measurement,setting,value
O=[N+]([O-])c1cc(-n2nnnc2SCc2ccc(Cl)c(Cl)c2)cc([N+](=O)[O-])c1,MIC,Staphylococcus aureus [1],62 µM
same,MIC,Klebsiella pneumoniae [2],> 500 µM
same,MIC,Enterococcus sp. [3],> 500 µM
same,MIC,Aspergillus fumigatus [4],> 500 µM
same,MIC,Pichia kudriavzevii [5],> 500 µM
same,selectivity ratio,[6],> 120
same,IC50,Huh-7,> 30 µM
same,MIC,Mycobacterium kansasii [7],0.25 µM
same,IC50,A-431,> 30 µM
same,"viability at 48 h, 30 µM",[8],90%
same,MIC,Candida albicans [9],> 500 µM
same,MIC,Escherichia coli [10],> 500 µM
same,MIC,Pichia kudriavzevii [11],> 500 µM
same,MIC,Staphylococcus aureus [12],125 µM
same,MIC,Escherichia coli [13],> 500 µM
same,IC50,HepG2,> 30 µM
same,MIC,[14],250 µM
same,"viability at 48 h, 30 µM",[15],84%
same,MIC,Candida albicans [16],> 500 µM
same,MIC,Trichosporon asahii [17],> 500 µM
same,MIC,Mycobacterium kansasii [18],0.5 µM
same,MIC,Lichtheimia corymbifera [19],> 500 µM
same,MIC,Trichosporon asahii [20],> 500 µM
same,MIC,Mycobacterium kansasii [21],0.5 µM
same,MIC,Klebsiella pneumoniae [22],> 500 µM
same,MIC,Mycobacterium avium [23],32 µM
same,MIC,Mycobacterium kansasii [24],1 µM
same,MIC,Pseudomonas aeruginosa [25],> 500 µM
same,MIC,[26],> 500 µM
same,MIC,Nakaseomyces glabratus [27],> 500 µM
same,MIC,Klebsiella pneumoniae [28],> 500 µM
same,MIC,[29],0.25 µM
same,MIC,Mycobacterium kansasii [30],1 µM
same,MIC,Staphylococcus aureus [31],125 µM
same,MIC,Candida tropicalis [32],> 500 µM
same,"viability at 48 h, 30 µM",[33],137%
same,MIC,Lichtheimia corymbifera [34],> 500 µM
same,MIC,[35],> 500 µM
same,MIC,Mycobacterium avium [36],8 µM
same,MIC,Pseudomonas aeruginosa [37],> 500 µM
same,MIC,[38],250 µM
same,MIC,Klebsiella pneumoniae [39],> 500 µM
same,MIC,Aspergillus fumigatus [40],> 500 µM
same,MIC,Mycobacterium kansasii [41],1 µM
same,MIC,Nakaseomyces glabratus [42],> 500 µM
same,MIC,Candida tropicalis [43],> 500 µM
same,MIC,[44],0.25 µM
same,"viability at 48 h, 30 µM",[45],145%
same,MIC,Staphylococcus aureus [46],62 µM
same,IC50,MDCK,> 30 µM
same,MIC,Enterococcus sp. [47],> 500 µM
O=[N+]([O-])c1cc(-c2nnc(SCc3cccc(Cl)c3)o2)cc([N+](=O)[O-])c1,selectivity ratio,[6],> 1000
same,IC50,Huh-7,> 30 µM
same,MIC,Mycobacterium kansasii [7],0.03 µM
same,IC50,A-431,> 30 µM
same,"viability at 48 h, 30 µM",[8],105%
same,IC50,HepG2,> 30 µM
same,"viability at 48 h, 30 µM",[15],105%
same,MIC,Mycobacterium kansasii [18],0.06 µM
same,MIC,Mycobacterium kansasii [21],0.06 µM
same,MIC,Mycobacterium avium [23],8 µM
same,MIC,Mycobacterium kansasii [24],0.06 µM
same,MIC,[29],0.06 µM
same,MIC,Mycobacterium kansasii [30],0.06 µM
same,"viability at 48 h, 30 µM",[33],158%
same,MIC,Mycobacterium avium [36],4 µM
same,MIC,Mycobacterium kansasii [41],0.06 µM
same,MIC,[44],0.03 µM
same,"viability at 48 h, 30 µM",[45],129%
same,IC50,MDCK,> 30 µM
C[C@@H]1[C@H](O)[C@@H](C)/C=C/C=C/C=C/C=C/C=C/C=C/C=C/[C@H](O[C@@H]2O[C@H](C)[C@@H](O)[C@H](N)[C@@H]2O)C[C@@H]2O[C@](O)(C[C@@H](O)C[C@@H](O)[C@H](O)CC[C@@H](O)C[C@@H](O)CC(=O)O[C@H]1C)C[C@H](O)[C@H]2C(=O)O [AMPHOTERICIN B],MIC,Candida albicans [9],0.54 µM
same,MIC,Pichia kudriavzevii [11],1 µM
same,MIC,Trichosporon asahii [20],0.27 µM
same,MIC,Candida tropicalis [32],0.54 µM
same,MIC,Lichtheimia corymbifera [34],1 µM
same,MIC,[35],0.54 µM
same,MIC,Aspergillus fumigatus [40],0.54 µM
same,MIC,Nakaseomyces glabratus [42],0.54 µM

# From ChEMBL document CHEMBL4002566, “S-substituted 3,5-dinitrophenyl 1,3,4-oxadiazole-2-thiols and tetrazole-5-thiols as highly efficient antitubercular agents” (Eur J Med Chem, 2017)
